Reference: PubChem BioAssay (NCI)
Where “and” joins values, the source holds several entries; their conditions need not be identical. Equal values may be shown once.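 Five compound concentrations were applied to cells in 96-well plates for 48 hours; endpoints were derived by simple linear interpolation of the resulting dose-response curve. The concentration for 50% growth inhibition is given as GI50. TGI is the concentration that stops growth completely.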

Assays:
Assay in all cases: DTP human tumour cell line panel, 48 h; in the data active means GI50 below about 0.43 µM; inactive means the rest
COLO 205 colon = tested on: COLO 205 colon
M14 melanoma = tested on: M14 melanoma
CAKI-1 renal = tested on: CAKI-1 renal
SN12C renal = tested on: SN12C renal
UACC-62 melanoma = tested on: UACC-62 melanoma
TK-10 renal = tested on: TK-10 renal
OVCAR-8 ovarian = tested on: OVCAR-8 ovarian
SNB-19 CNS = tested on: SNB-19 CNS
PC-3 prostate = tested on: PC-3 prostate
SK-MEL-5 melanoma = tested on: SK-MEL-5 melanoma
ACHN renal = tested on: ACHN renal
HL-60(TB) leukemia = tested on: HL-60(TB) leukemia
HCT-15 colon = tested on: HCT-15 colon
SK-MEL-2 melanoma = tested on: SK-MEL-2 melanoma
UACC-257 melanoma = tested on: UACC-257 melanoma
SF-268 CNS = tested on: SF-268 CNS
A549 NSCLC = tested on: A549 NSCLC
NCI/ADR-RES ovarian = tested on: NCI/ADR-RES ovarian
RXF 393 renal = tested on: RXF 393 renal
SK-OV-3 ovarian = tested on: SK-OV-3 ovarian
K-562 leukemia = tested on: K-562 leukemia
KM12 colon = tested on: KM12 colon
SW-620 colon = tested on: SW-620 colon
MDA-MB-231 breast = tested on: MDA-MB-231 breast
CCRF-CEM leukemia = tested on: CCRF-CEM leukemia
U251 CNS = tested on: U251 CNS
SNB-75 CNS = tested on: SNB-75 CNS
NCI-H23 lung = tested on: NCI-H23 lung
MDA-MB-435 = tested on: MDA-MB-435
SR leukemia = tested on: SR leukemia
NCI-H460 lung = tested on: NCI-H460 lung
HCC-2998 colon = tested on: HCC-2998 colon
OVCAR-4 ovarian = tested on: OVCAR-4 ovarian
UO-31 renal = tested on: UO-31 renal
OVCAR-5 ovarian = tested on: OVCAR-5 ovarian
786-0 renal = tested on: 786-0 renal
HT29 colon = tested on: HT29 colon
T-47D breast = tested on: T-47D breast
NCI-H522 lung = tested on: NCI-H522 lung
EKVX NSCLC = tested on: EKVX NSCLC
DU-145 prostate = tested on: DU-145 prostate
BT-549 breast = tested on: BT-549 breast
HCT-116 colon = tested on: HCT-116 colon
MCF7 breast = tested on: MCF7 breast
HOP-92 NSCLC = tested on: HOP-92 NSCLC
HOP-62 NSCLC = tested on: HOP-62 NSCLC
A498 renal = tested on: A498 renal
SK-MEL-28 melanoma = tested on: SK-MEL-28 melanoma
HS 578T breast = tested on: HS 578T breast
SF-539 CNS = tested on: SF-539 CNS
MALME-3M melanoma = tested on: MALME-3M melanoma
LOX IMVI melanoma = tested on: LOX IMVI melanoma
IGROV1 ovarian = tested on: IGROV1 ovarian
NCI-H226 lung = tested on: NCI-H226 lung
SF-295 CNS = tested on: SF-295 CNS
OVCAR-3 ovarian = tested on: OVCAR-3 ovarian
MOLT-4 leukemia = tested on: MOLT-4 leukemia
RPMI-8226 leukemia = tested on: RPMI-8226 leukemia

Cc1c2ccccc2c(C)n2c1nc1cc(Cl)c(Cl)cc12
72.1 µM: TGI (K-562 leukemia)
> 100 µM: TGI (COLO 205 colon) | TGI (M14 melanoma) | TGI (CAKI-1 renal) | TGI (SN12C renal) | TGI (UACC-62 melanoma) | TGI (TK-10 renal) | TGI (OVCAR-8 ovarian) | TGI (SNB-19 CNS) | TGI (PC-3 prostate) | TGI (SK-MEL-5 melanoma) | TGI (ACHN renal) | TGI (HCT-15 colon) | TGI (SK-MEL-2 melanoma) | TGI (UACC-257 melanoma) | TGI (SF-268 CNS) | TGI (A549 NSCLC) | TGI (RXF 393 renal) | TGI (SK-OV-3 ovarian) | TGI (KM12 colon) | TGI (SW-620 colon) | TGI (MDA-MB-231 breast) | TGI (CCRF-CEM leukemia) | TGI (U251 CNS) | TGI (SNB-75 CNS) | TGI (NCI-H23 lung) | TGI (MDA-MB-435) | TGI (NCI-H460 lung) | TGI (HCC-2998 colon) | TGI (OVCAR-4 ovarian) | TGI (UO-31 renal) | TGI (OVCAR-5 ovarian) | TGI (786-0 renal) | TGI (HT29 colon) | TGI (T-47D breast) | TGI (EKVX NSCLC) | TGI (DU-145 prostate) | TGI (BT-549 breast) | TGI (HCT-116 colon) | TGI (MCF7 breast) | TGI (HOP-92 NSCLC) | TGI (HOP-62 NSCLC) | TGI (A498 renal) | TGI (SK-MEL-28 melanoma) | TGI (HS 578T breast) | TGI (SF-539 CNS) | TGI (LOX IMVI melanoma) | TGI (IGROV1 ovarian) | TGI (NCI-H226 lung) | TGI (SF-295 CNS) | TGI (RPMI-8226 leukemia)
80.3 µM: TGI (NCI-H522 lung)
44.7 µM: TGI (SR leukemia)
8.62 µM and 46.5 µM: TGI (MOLT-4 leukemia)
9.71 µM and 77.1 µM: TGI (HL-60(TB) leukemia)
inactive: GI50 (COLO 205 colon) 19.2 µM | GI50 (M14 melanoma) > 100 µM | GI50 (CAKI-1 renal) 15.1 µM | GI50 (SN12C renal) > 100 µM | GI50 (UACC-62 melanoma) 45.2 µM | GI50 (TK-10 renal) > 100 µM | GI50 (OVCAR-8 ovarian) > 100 µM | GI50 (SNB-19 CNS) > 100 µM | GI50 (PC-3 prostate) 31.4 µM | GI50 (SK-MEL-5 melanoma) 25.7 µM | GI50 (ACHN renal) 26 µM | GI50 (HL-60(TB) leukemia) 17.5 µM | GI50 (HCT-15 colon) 93.5 µM | GI50 (SK-MEL-2 melanoma) > 100 µM | GI50 (UACC-257 melanoma) > 100 µM | GI50 (SF-268 CNS) > 100 µM | GI50 (A549 NSCLC) > 100 µM | GI50 (NCI/ADR-RES ovarian) > 100 µM | GI50 (RXF 393 renal) > 100 µM | GI50 (SK-OV-3 ovarian) > 100 µM | GI50 (K-562 leukemia) 14.3 µM | GI50 (KM12 colon) > 100 µM | GI50 (SW-620 colon) 74.1 µM | GI50 (MDA-MB-231 breast) 72.5 µM | GI50 (CCRF-CEM leukemia) 43.9 µM | GI50 (U251 CNS) 34.6 µM | GI50 (SNB-75 CNS) 36.9 µM | GI50 (NCI-H23 lung) > 100 µM | GI50 (MDA-MB-435) > 100 µM | GI50 (SR leukemia) 12.9 µM | GI50 (NCI-H460 lung) 27.4 µM | GI50 (HCC-2998 colon) > 100 µM | GI50 (OVCAR-4 ovarian) 22.4 µM | GI50 (UO-31 renal) 8.14 µM | GI50 (OVCAR-5 ovarian) > 100 µM | GI50 (786-0 renal) > 100 µM | GI50 (HT29 colon) 31 µM | GI50 (T-47D breast) 3.95 µM | GI50 (NCI-H522 lung) 15.1 µM | GI50 (EKVX NSCLC) 93.7 µM | GI50 (DU-145 prostate) > 100 µM | GI50 (BT-549 breast) > 100 µM | GI50 (HCT-116 colon) 18.6 µM | GI50 (MCF7 breast) 1.09 µM | GI50 (HOP-92 NSCLC) > 100 µM | GI50 (HOP-62 NSCLC) > 100 µM | GI50 (A498 renal) > 100 µM | GI50 (SK-MEL-28 melanoma) > 100 µM | GI50 (HS 578T breast) > 100 µM | GI50 (SF-539 CNS) > 100 µM | GI50 (MALME-3M melanoma) > 100 µM | GI50 (LOX IMVI melanoma) 25.2 µM | GI50 (IGROV1 ovarian) 8.62 µM | GI50 (NCI-H226 lung) > 100 µM | GI50 (SF-295 CNS) > 100 µM | GI50 (OVCAR-3 ovarian) 18.6 µM | GI50 (MOLT-4 leukemia) 16 µM | GI50 (RPMI-8226 leukemia) 18.4 µM

O=C(Cn1c(=O)oc2ccc(C(=O)c3cccc(Cl)c3)cc21)c1ccccc1
78.6 µM: TGI (HCC-2998 colon)
> 100 µM: TGI (COLO 205 colon) | TGI (M14 melanoma) | TGI (CAKI-1 renal) | TGI (SN12C renal) | TGI (UACC-62 melanoma) | TGI (TK-10 renal) | TGI (OVCAR-8 ovarian) | TGI (PC-3 prostate) | TGI (SK-MEL-5 melanoma) | TGI (ACHN renal) | TGI (HL-60(TB) leukemia) | TGI (HCT-15 colon) | TGI (SK-MEL-2 melanoma) | TGI (UACC-257 melanoma) | TGI (SF-268 CNS) | TGI (A549 NSCLC) | TGI (NCI/ADR-RES ovarian) | TGI (SK-OV-3 ovarian) | TGI (K-562 leukemia) | TGI (SW-620 colon) | TGI (MDA-MB-231 breast) | TGI (CCRF-CEM leukemia) | TGI (U251 CNS) | TGI (SNB-75 CNS) | TGI (NCI-H23 lung) | TGI (MDA-MB-435) | TGI (SR leukemia) | TGI (NCI-H460 lung) | TGI (OVCAR-4 ovarian) | TGI (UO-31 renal) | TGI (OVCAR-5 ovarian) | TGI (HT29 colon) | TGI (T-47D breast) | TGI (NCI-H522 lung) | TGI (EKVX NSCLC) | TGI (DU-145 prostate) | TGI (BT-549 breast) | TGI (MCF7 breast) | TGI (HOP-92 NSCLC) | TGI (HOP-62 NSCLC) | TGI (SK-MEL-28 melanoma) | TGI (HS 578T breast) | TGI (SF-539 CNS) | TGI (MALME-3M melanoma) | TGI (LOX IMVI melanoma) | TGI (IGROV1 ovarian) | TGI (NCI-H226 lung) | TGI (SF-295 CNS) | TGI (OVCAR-3 ovarian) | TGI (MOLT-4 leukemia) | TGI (RPMI-8226 leukemia)
95.8 µM: TGI (A498 renal)
